In ChEMBL document CHEMBL4725258, “2β-3,4-Unsaturated sialic acid derivatives: Synthesis optimization, and biological evaluation as Newcastle disease virus hemagglutinin-neuraminidase inhibitors” (Bioorg Med Chem, 2020):

Assays:
Sialidase-3 = molecular target: T1, Sialidase-3 (Homo sapiens, UniProt Q9UQ49); assay: Inhibition of human NEU3 expressed in HEK293A cells as substrate incubated for 1 hr by spectrofluorometric analysis; set-up: species or system HEK293
T1 sequence (Q9UQ49 whole entry): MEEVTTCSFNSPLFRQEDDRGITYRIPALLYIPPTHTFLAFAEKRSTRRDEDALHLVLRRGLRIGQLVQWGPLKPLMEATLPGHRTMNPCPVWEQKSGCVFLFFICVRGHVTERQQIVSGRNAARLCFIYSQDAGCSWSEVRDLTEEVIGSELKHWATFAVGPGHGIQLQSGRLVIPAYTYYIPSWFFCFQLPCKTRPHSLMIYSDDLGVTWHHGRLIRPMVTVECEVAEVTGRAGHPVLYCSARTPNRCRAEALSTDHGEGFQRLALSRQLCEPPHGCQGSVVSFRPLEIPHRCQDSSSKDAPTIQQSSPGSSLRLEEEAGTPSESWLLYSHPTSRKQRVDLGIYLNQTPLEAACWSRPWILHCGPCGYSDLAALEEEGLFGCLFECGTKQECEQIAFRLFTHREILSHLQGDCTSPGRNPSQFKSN

[1] = Inhibition of Newcastle disease virus neuraminidase using 4-MUNeu5Ac as substrate incubated for 15 mins by spectrofluorometric analysis; set-up: species or system avian paramyxovirus 1

Row | SMILES | IC50 (Sialidase-3) | IC50 [1]
1 | CCCCCCCCS[C@@]1(C(=O)O)C=C[C@@H](NC(C)=O)[C@H]([C@H](O)[C@H](O)CO)O1 | > 1000 µM | 406 µM
2 | [N-]=[N+]=N[C@H]1C=C(C(=O)O)O[C@@H]([C@H](O)[C@H](O)CO)[C@@H]1NC(=O)C(F)(F)C(F)(F)C(F)(F)F | – | 0.213 µM
3 | CO[C@@]1(C(=O)O)C=C[C@@H](NC(C)=O)[C@H]([C@H](O)[C@H](O)CO)O1 | > 1000 µM | > 1000 µM
4 | CC(=O)N[C@@H]1C=C[C@](OC(C)C)(C(=O)O)O[C@H]1[C@H](O)[C@H](O)CO | > 1000 µM | 511 µM
5 | CCO[C@@]1(C(=O)O)C=C[C@@H](NC(C)=O)[C@H]([C@H](O)[C@H](O)CO)O1 | > 1000 µM | 384 µM
6 | CO[C@]1(C(=O)O)C=C[C@@H](NC(C)=O)[C@H]([C@H](O)[C@H](O)CO)O1 | > 1000 µM | > 1000 µM
7 | CC(=O)N[C@@H]1C=C[C@@](OC(C)C)(C(=O)O)O[C@H]1[C@H](O)[C@H](O)CO | > 1000 µM | 148 µM
8 | CCS[C@]1(C(=O)O)C=C[C@@H](NC(C)=O)[C@H]([C@H](O)[C@H](O)CO)O1 | > 1000 µM | 100 µM
9 | CC(=O)N[C@H]1[C@H]([C@H](O)[C@H](O)CO)OC(C(=O)O)=C[C@@H]1O [NEU5AC2EN] | 2.4 µM | 13 µM
10 | CCCO[C@@]1(C(=O)O)C=C[C@@H](NC(C)=O)[C@H]([C@H](O)[C@H](O)CO)O1 | > 1000 µM | 512 µM
11 | CCCCO[C@@]1(C(=O)O)C=C[C@@H](NC(C)=O)[C@H]([C@H](O)[C@H](O)CO)O1 | > 1000 µM | 485 µM
12 | CCS[C@@]1(C(=O)O)C=C[C@@H](NC(C)=O)[C@H]([C@H](O)[C@H](O)CO)O1 | > 1000 µM | 248 µM
13 | O=C(O)C1=C[C@H](O)[C@@H](NC(=O)C(F)(F)F)[C@H]([C@H](O)[C@H](O)CO)O1 | 3.9 µM | 2.45 µM
